According to patent US10870634B2, “Histone demethylase inhibitors” (CELGENE QUANTICEL RESEARCH, INC., priority 2016, dated 2020):

The compounds below were run against T1, JMJD2C (Homo sapiens, UniProt Q9H3R0) (assay: JMJD2C in vitro enzyme inhibition assay (TR-FRET)). Settings: 0.3 nM JMJD2C, 300 nM H3K9me3-biotin peptide, 2 μM alpha-ketoglutaric acid.
T1 construct: purchased BPS Bioscience 50105
T1 sequence (Q9H3R0 2-372): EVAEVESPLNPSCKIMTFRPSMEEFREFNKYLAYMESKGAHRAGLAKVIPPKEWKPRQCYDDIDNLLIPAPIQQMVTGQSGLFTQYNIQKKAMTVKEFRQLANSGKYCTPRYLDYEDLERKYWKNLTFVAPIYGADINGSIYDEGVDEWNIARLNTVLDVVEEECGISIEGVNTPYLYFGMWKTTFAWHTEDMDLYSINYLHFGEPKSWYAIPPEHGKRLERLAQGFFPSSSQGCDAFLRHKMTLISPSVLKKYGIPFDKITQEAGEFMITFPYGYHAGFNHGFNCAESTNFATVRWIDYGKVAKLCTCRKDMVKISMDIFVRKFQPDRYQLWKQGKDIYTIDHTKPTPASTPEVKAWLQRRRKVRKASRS
Assay type: biochemical
Excerpt: This assay determines the ability of a test compound to inhibit Jarid1B, JMJD2C and JMJD3 demethylase activity. Baculovirus-expressed Jarid1B (GenBank Accession # NM-006618, AA 2-751) was purchased from BPS Bioscience (Cat #50121) or custom made by MolecularThroughput. Baculovirus-expressed JMJD2C (GenBank Accession # BC143571, AA 2-372) was purchased from BPS Bioscience (Cat #50105). Baculovirus-expressed JMJD3 (GenBank Accession # NM_001080424, AA1043-end) was purchased from BPS Bioscience (Cat #50115).
The ability of test compounds to inhibit the activity of JMJD2C was determined in 384-well plate format under the following reaction conditions: 0.3 nM JMJD2C, 300 nM H3K9me3-biotin labeled peptide (Anaspec cat #464360), 2 μM alpha-ketoglutaric acid in assay buffer of 50 mM HEPES, pH 7.3, 0.005% Brij35, 0.5 mM TCEP, 0.2 mg/ml BSA, 50 μM sodium L-ascorbate, and 2 μM ammonium ironll sulfate. Reaction product was determined quantitatively by TR-FRET after the addition of detection reagent Phycolink Streptavidin-allophycocyanin (Prozyme) and Europium-anti-di-methylated histone H3 lysine 9 (H3K9me2) antibody (PerkinElmer) in the presence of 5 mM EDTA in LANCE detection buffer (PerkinElmer) at a final concentration of 50 nM and 1 nM, respectively.
The assay reaction was initiated by the following: 2 μl of the mixture of 900 nM H3K9me3-biotin labeled peptide and 6 μM alpha-ketoglutaric acid with 2 μl of 11-point serial diluted inhibitor in 3% DMSO were added to each well of the plate, followed by the addition of 2 μl of 0.9 nM JMJD2C to initiate the reaction. […] Plates were read by EnVisionMultilabel Reader in TR-FRET mode (excitation at 320 nm, emission at 615 nm and 665 nm) after 1 hr incubation at RT. A ratio was calculated (665/615) for each well and fitted to determine inhibition constant (IC50).
The ability to inhibit demethylase activity was quantified and the respective IC50 value was determined for substituted triazolylpyridine derivative compounds. […]
In the case of `Fc1cnccc1-c1nn[nH]c1C(F)(F)F` [Example 1, 3-fluoro-4-[5-(trifluoromethyl)-1H-1,2,3-triazol-4-yl]pyridine], the IC50 is reported as greater than 10 µM. `Fc1ccc(Cl)cc1Nc1cnccc1-c1nn[nH]c1C(F)(F)F` [Example 2, N-(5-chloro-2-fluorophenyl)-4-[5-(trifluoromethyl)-1H-1,2,3-triazol-4-yl]pyridin-3-amine] showed an IC50 greater than 10 µM. Compound `FC(F)(F)c1[nH]nnc1-c1ccncc1NCC1CCCc2ccccc21` (stereo not drawn) [Example 3, N-[(1,2,3,4-tetrahydronaphthalen-1-yl)methyl]-4-[5-(trifluoromethyl)-1H-1,2,3-triazol-4-yl]pyridine-3-amine] has an IC50 greater than 10 µM.
